Results as given in article PMC9616412, “Nebulized fusion inhibitory peptide protects cynomolgus macaques from measles virus infection” (Nature Communications, 2022).
Values joined by “and” are separate entries in the source; they are usually repeats but may differ in a detail not shown here. Equal entries are not always repeated.

Key:
[1] = ELISA of HRC4 concentration in serum and urine
MeV IC323-eGFP [2] = test: ELISA of total MeV-specific immunoglobulin in serum; settings: HRC4-treated animals P1 and P3
Experimental: Sera of MeV-infected NHPs were tested for the presence of anti-MeV antibodies by ELISA. Briefly, MeV nucleoprotein, produced as described previously[71] was coated onto 96-well ELISA plates overnight (1 μg /well). Plates were blocked using a mix of PBS 1X-Milk 5% for 30 min at room temperature. Serial dilutions (1:50 and then 1:3 serial dilutions until 1:2952450) were done in PBS 1X-Tween 0.05%-Milk and incubated 2 h at RT. […] Optical density was measured at 450 and 620 nm using an ELISA reader (Thermo Fisher) and the absorbance difference between 450 nm and 650 nm was determined and corrected for blank readings. The serum sample was considered positive when its value was higher than three times the average value obtained with the negative sera of the same dilution and the results were expressed as reciprocal value of the last serum dilution giving the measurable values.

[3] = Clinical observation for adverse effects after nebulization; settings: during the 28 days after peptide nebulization
MeV IC323-eGFP [4] = test: Serial passaging of MeV in presence of peptide and sequencing for escape variants; settings: 1 µM peptide, Vero-hSLAM cells, 8 passages, sequencing of viral RNA
MeV IC323 = test: Lethal intranasal MeV infection of CD150xIFNα/βR KO mice, survival; settings: p < 0.0001, Mantel-Cox test
Experimental: CD150xIFNα/βR KO mice[35],[36], generated by crossing hSLAM transgenic mice into an IFN Receptor α/β deficient background, were bred at the institute’s animal facility (PBES, ENS-Lyon, France) as heterozygotes for hSLAM transgenes. Three to 4 weeks old mice (males and females) were infected by intranasal route (i.n.) with 10 µl of MeV IC323 in both nares (10^4 PFU/mouse) under isoflurane anesthesia. CD150xIFNα/βR KO mice were given i.n. either 0.1 or 1 mg/kg of HRC4 peptide 24 h or 6 h before the infection. Control mice received the same number of administrations of the diluent. All animals were observed and weighed daily for four weeks and those showing clinical signs (neurological symptoms, ataxia, lethargy) were euthanized.

[5] = ELISA of total IgE in serum; assay type: in vivo, cynomolgus macaques; parameters: unit not given here; settings: Peptide group
Experimental: (§1) Briefly, HRC4 was coated in carbonate buffer pH 9.2 overnight (1 μg /well). […] Rabbit anti-HRC4 Ab followed with anti-rabbit Ab coupled to HRP was used as a positive control. Evaluation of total IgE in the serum was performed using the monkey IgE kit (Ozyme) following the manufacturer’s recommendation.

[6] = Flow cytometry of major PBMC populations in blood; assay type: in vivo, cynomolgus macaques; settings: compared to values before the nebulization
[7] = ELISA of HRC4-specific IgE in serum; assay type: in vivo, cynomolgus macaques; settings: up to 4 weeks after nebulization
Experimental: as §1

[8] = Immunofluorescence detection of HRC4 in lungs after nebulization; assay type: in vivo, cynomolgus macaques; settings: lungs sampled 15 min, 16 h and 24 h after nebulization; anti-HRC4 immunofluorescence, all three lung regions
Experimental: To evaluate immediate HRC4 biodistribution into lungs, one animal from the MeV-infection experiment (C1) was nebulized with 3 ml (4 mg/ml) immediately after euthanasia under mechanical ventilation (Dräger Primus anesthesia machine). For mid-term biodistribution, animals were nebulized 24 h (C2) or 16 h (C3) before euthanasia.
To assess the bioavailability of the HRC4 peptide on lungs, sections were stained and imaged by confocal microscopy as described previously. Briefly, after being blocked and permeabilized in 0.1% TritonX100, 5% BSA solution, slices were sequentially incubated with a rabbit anti-HRC4 (Genscript) overnight at 4 °C and with a secondary donkey anti-rabbit alexa-555 (Thermo Fisher) diluted 1/500 and DAPI (1 µg/ml) for 1 h at room temperature. Slides were imaged using a Zeiss LSM800 confocal microscope and processed by ImageJ1.52p.

[9] = Biochemical parameters in plasma after nebulization; assay type: in vivo, cynomolgus macaques; settings: noninfected animals, days 1, 2, 3, 6, 28 after nebulization
Experimental: (§2) Biochemical parameters in the plasma and cellular composition of the blood were evaluated immediately before treatment and 1, 2, 3, 6, and 28 days after nebulization of either saline or HRC4 peptide in non-infected and MeV-infected NHP, to search for early and late toxic effects of the aerosol delivery (Fig. 4). […] In both control and peptide group, few animals experienced transient increase of creatine kinase above physiological values[40] (Fig. 4a), which can be linked to intramuscular anesthesia, as described previously.

[10] = Laser diffraction and output measurement of the nebulized aerosol; assay type: physicochemical; settings: HRC4 4 mg/ml, 3 ml, prototype mesh nebulizer, laser diffraction; mean +/- SD of four devices
Experimental: The aerodynamic performances of the aerosols generated by the prototype mesh nebulizer were determined by laser diffraction using a Spraytec™ instrument (Malvern Instruments Ltd., Malvern, UK) and the Spraytec inhalation cell (Malvern Instruments Ltd., Malvern, UK) connected to an aspiration carried out by a vacuum pump set to 30-50 L/min[70]. The prototype mesh nebulizers (n=4) were loaded with 3 ml of either NaCl 0.9% or the HCR4 peptide (4 mg/ml, dissolved as described above) and then connected to the inhalation cell. Nebulization duration was notified at the end of the complete aerosolization of the loaded 3 ml. Diffraction data and volume distribution were automatically registered by the Spraytec software.
The output of nebulizer was determined by the difference between the weight of the nebulizer before and after nebulization and was expressed in percentage of the loaded volume. The output rate of each nebulizer (in ml/min) was then determined as the ratio between the output and the nebulization duration. At least, the residual volume corresponding to the volume of liquid remaining in the reservoir at the end of the nebulization was also determined by weighting the nebulizer before loading it and after nebulization.

[11] = ELISA of anti-HRC4 antibodies (IgG, IgA, IgM) in serum; assay type: in vivo, cynomolgus macaques; settings: for anti-HRC4 antibodies (IgG, IgA and IgM), ELISA, D28 minus day 0: serum 1:20, rep1-rep3
Experimental: as §1

MeV IC323-eGFP [12] = test: MeV infection of NHP: clinical signs and fluorescent rash
Experimental: Blood samples for hematology analyses were collected at days −1, 0, 1, 2, 3, 6, 9, 13, 16 and 28. Blood samples for flow cytometry analyses were collected at days −1, 3, 6, 9, 13, 16 and 28. Throat swabs were collected at days 0, 1, 2, 3, 6, 9, 13, 16 and 28, using cotton swabs. Oxygen saturation and heartbeat were monitored by a Radical-7® Pulse CO-Oximeter (Masimo) and breathing was monitored by a Dräger Primus anesthesia machine. Hematological parameters were measured on a Procyte DX (IDEXX) and biochemical parameters were evaluated on a Konelab 30 (Thermo Fisher). Development of fluorescent rash was followed using a FastGene Blue/Green LED Flashlight (Nippon genetics).

Vero cells = test: Cell toxicity assay (MTT); assay type: cell-based; settings: doses ranging from 0.5 nM to 4 µM, before and after nebulization, Vero-E6 cells
Experimental: Vero cells were incubated at 37 °C in the presence or absence of the indicated peptides at indicated concentrations up to 5 μM HRC4 peptide as added into the media, and the cells were incubated a 37 °C. According to the manufacturer’s guidelines, the viability was determined after 24 h using the Vybrant MTT (3- (4, 5-dimethylthiazolyl-2) −2, 5-diphenyltetrazolium bromide) cell proliferation assay kit. TritonX-100 (1%) was used as a positive control. Absorbance was read at 540 nm using a Tecan M1000PRO microplate reader.

MeV IC323-eGFP [13] = test: Class-unswitched and switched memory B cells by flow cytometry; settings: HRC4-treated animals P1 and P3
Experimental: Whole blood was collected on EDTA, then transferred into BD vacutainer CPT tubes (after removal of anticoagulant solution from CPT tubes) and spun at 2500 g for 20 min. The PBMCs were collected and one-tenth were used to isolate RNA. […] Cells were acquired on a MACSQuant®10 flow cytometer (Miltenyi) and analyzed by FlowJo10.8 (Becton Dickinson) and Kaluza 2.1 (Beckman Coulter).

[14] = Haematological parameters after nebulization; assay type: in vivo, cynomolgus macaques; settings: noninfected animals, days 1, 2, 3, 6, 28 after nebulization
Experimental: as §2

For `CC[C@H](C)[C@H](NC(=O)[C@H](C)NC(=O)[C@H](CC(N)=O)NC(=O)CNC(=O)[C@H](CC(C)C)NC(=O)[C@H](CC(N)=O)NC(=O)[C@@H](NC(=O)CNC(=O)[C@@H](NC(=O)[C@H](CC(=O)O)NC(=O)[C@H](CC(C)C)NC(=O)[C@H](CCCNC(=N)N)NC(=O)[C@H](CCC(=O)O)NC(=O)[C@H](CC(C)C)NC(=O)[C@H](CO)NC(=O)[C@@H](NC(=O)[C@@H]1CCCN1C(=O)[C@@H]1CCCN1)[C@@H](C)CC)C(C)C)[C@@H](C)O)C(=O)N[C@@H](C)C(=O)N[C@@H](CCCCN)C(=O)N[C@@H](CC(C)C)C(=O)N[C@@H](CCC(=O)O)C(=O)N[C@@H](CC(=O)O)C(=O)N[C@@H](C)C(=O)N[C@@H](CCCCN)C(=O)N[C@@H](CCC(=O)O)C(=O)N[C@@H](CC(C)C)C(=O)N[C@@H](CC(C)C)C(=O)N[C@@H](CCC(=O)O)C(=O)N[C@@H](CO)C(=O)N[C@@H](CO)C(=O)N[C@@H](CC(=O)O)C(=O)N[C@@H](CCC(N)=O)C(=O)N[C@H](C(=O)N[C@@H](CC(C)C)C(=O)N[C@@H](CCCNC(=N)N)C(=O)NCC(=O)N[C@@H](CO)C(=O)NCC(=O)N[C@@H](CO)C(=O)NCC(=O)N[C@@H](CSC1CC(=O)N(CCCC(=O)NCCOCCOCCOCCOCCC(=O)NCCN(CCNC(=O)CCOCCOCCOCCOCCNC(=O)CCCN2C(=O)CC(SC[C@H](NC(=O)CNC(=O)[C@H](CO)NC(=O)CNC(=O)[C@H](CO)NC(=O)CNC(=O)[C@H](CCCNC(=N)N)NC(=O)[C@H](CC(C)C)NC(=O)[C@@H](NC(=O)[C@H](CCC(N)=O)NC(=O)[C@H](CC(=O)O)NC(=O)[C@H](CO)NC(=O)[C@H](CO)NC(=O)[C@H](CCC(=O)O)NC(=O)[C@H](CC(C)C)NC(=O)[C@H](CC(C)C)NC(=O)[C@H](CCC(=O)O)NC(=O)[C@H](CCCCN)NC(=O)[C@H](C)NC(=O)[C@H](CC(=O)O)NC(=O)[C@H](CCC(=O)O)NC(=O)[C@H](CC(C)C)NC(=O)[C@H](CCCCN)NC(=O)[C@H](C)NC(=O)[C@@H](NC(=O)[C@H](C)NC(=O)[C@H](CC(N)=O)NC(=O)CNC(=O)[C@H](CC(C)C)NC(=O)[C@H](CC(N)=O)NC(=O)[C@@H](NC(=O)CNC(=O)[C@@H](NC(=O)[C@H](CC(=O)O)NC(=O)[C@H](CC(C)C)NC(=O)[C@H](CCCNC(=N)N)NC(=O)[C@H](CCC(=O)O)NC(=O)[C@H](CC(C)C)NC(=O)[C@H](CO)NC(=O)[C@@H](NC(=O)[C@@H]3CCCN3C(=O)[C@@H]3CCCN3)[C@@H](C)CC)C(C)C)[C@@H](C)O)[C@@H](C)CC)[C@@H](C)CC)C(=O)O)C2=O)CCO[C@H]2CC[C@@]3(C)C(=CC[C@H]4[C@@H]5CC[C@H]([C@H](C)CCCC(C)C)[C@@]5(C)CC[C@@H]43)C2)C1=O)C(=O)O)[C@@H](C)CC` (stereo partly drawn) [HRC4], the level at time molar at 96 h ([1]; cynomolgus monkey, serum, inhaled or intranasal, 4 mg/kg, [HRC4] nM, serum of NHP, 96 hours post nebulization, single values) was 0.285 nM, the HRC4 in urine ([1]; nebulized macaques) was “absent” and the “[HRC4]” value ([1]; serum of NHP, 0 hours post nebulization, single values) was 0 nM. For the same compound, the “[HRC4]” value ([1]; serum of NHP, 168 hours post nebulization, single values) was 0 nM, the Seroconversion (MeV IC323-eGFP [2]) was “absence of seroconversion” and the “Adverse effects (pyrexia, allergic reaction)” value [3] was “no adverse effects”. For the same compound, the “Mutations in MeV F after serial passage in presence of peptide” value (MeV IC323-eGFP [4]) was “no mutations were identified”, the Survival rate (MeV IC323; HRC4 1 mg/kg intranasal six hours before infection with 10^4 PFU) was “significantly higher survival rate” and the Survival rate (MeV IC323; HRC4 1 mg/kg intranasal twenty-four hours before infection with 10^4 PFU) was “significantly higher survival rate”. For the same compound, the “Total IgE” value ([5]; animal column 1, day 0 post nebulization) was 1.801, the “Total IgE” value ([5]; animal column 1, day 3 post nebulization) was 3.381 and the “Total IgE” value ([5]; animal column 1, day 6 post nebulization) was 4.651. For the same compound, the “Total IgE” value ([5]; animal column 1, day 13 post nebulization) was 17.565, the “Total IgE” value ([5]; animal column 1, day 28 post nebulization) was 2.916 and the “Total IgE” value ([5]; animal column 2, day 0 post nebulization) was 1.21. For the same compound, the “Total IgE” value ([5]; animal column 2, day 3 post nebulization) was 1.735, the “Total IgE” value ([5]; animal column 2, day 6 post nebulization) was 1.034 and the “Total IgE” value ([5]; animal column 2, day 13 post nebulization) was 2.308. For the same compound, the “Total IgE” value ([5]; animal column 2, day 28 post nebulization) was 3.192, the “Total IgE” value ([5]; animal column 3, day 0 post nebulization) was 3.017 and the “Total IgE” value ([5]; animal column 3, day 3 post nebulization) was 5.929. For the same compound, the “Total IgE” value ([5]; animal column 3, day 6 post nebulization) was 6.63, the “Total IgE” value ([5]; animal column 3, day 13 post nebulization) was 5.888 and the “Total IgE” value ([5]; animal column 3, day 28 post nebulization) was 1.999. The “Composition of major PBMC populations in blood” value [6] was “did not reveal any significant changes”, the “HRC4-specific IgE in serum” value [7] was “did not reveal presence of any HRC4-specific IgE” and the “Deposition of HRC4 in lungs” value [8] was “presence of HRC4 within the alveoli surface area”. For the same compound, the “Biochemical parameters in plasma” value [9] was “within the physiological levels”, the “< 2µm” value [10] was 13.9 +/- 2.0% and the “< 5µm” value [10] was 57.4 +/- 3.9%. For the same compound, the VMD [10] was 4.43 +/- 0.26 µm, the “HRC4 specific antibodies in serum” value ([11]; 28 days after nebulization) was “not found” and the “anti-HRC4 antibodies (IgG, IgA and IgM), ELISA, D28 minus day 0” value ([11]; animal P2) was 0.2158 and 0.159 and 0.1449. The “anti-HRC4 antibodies (IgG, IgA and IgM), ELISA, D28 minus day 0” value ([11]; animal P3) was 0.0684 and 0.0721 and 0.0837, the “Abrogation of development of MeV infection” value (MeV IC323-eGFP [12]; absence of fluorescent rash, PBMC infection, viremia, viral shedding and MeV-specific immune response) was “two out of three animals” and the GFP-fluorescent rash (MeV IC323-eGFP [12]; nebulized HRC4 24 h and 6 h before and 24 h after intra-tracheal 10^4 PFU MeV IC323-eGFP, 3 animals) was “no HRC4-treated animals”. The Cytotoxicity (Vero cells) was “No measurable cytotoxicity”, the “Memory B cell populations” value (MeV IC323-eGFP [13]) was “remained stable without any noticeable increase” and the Hematological parameters [14] was “within the physiological levels”.
